Values after ≈ are worked out from the molar mass of the structure shown. Counter-ions that a name gives are not always drawn. Like-named read-outs stand apart in the source and are kept apart here.
What was measured:
[1] = test system: Staphylococcus aureus K-1; assay: Minimum inhibitory concentration, agar plate dilution method; type: cell-based
Experimental: (§1) The antibacterial activity against various bacteria was measured by the agar plate dilution method (inoculum size 10^6 cells/ml), and the results are shown in the following Table 1.

Escherichia coli A13 = assay: as above; type: cell-based
Experimental: as §1

[2] = test system: Escherichia coli NIJH JC-2; assay: as above; type: cell-based
Experimental: as §1

[3] = test system: Klebsiella pneumoniae T-25; assay: as above; type: cell-based
Experimental: as §1

[4] = test system: Morganella morganii IID 602; assay: as above; type: cell-based
Experimental: as §1

[5] = test system: Staphylococcus aureus 209P-JC; assay: as above; type: cell-based; details: read-out: Minimum Inhibitory Concentration
Experimental: as §1

in vivo = details: rat, blood, 50 mg/kg in 5% gum arabic, male wister rats, bioassay
Experimental: Three male wister rats (7 weeks old) for each group were administered orally with the test compounds, and the change of the concentration of the compound in blood was measured.
Dosage of the test compound:
50 mg/kg (suspended in 5% gum arabic)
Quantitative method: Bioasssay
(test bacterium: Escherichia coil SC507)

[6] = Staphylococcus aureus, K1, read-out: Minimum Inhibitory Concentration
[7] = Escherichia coli, A13, read-out: Minimum Inhibitory Concentration
[8] = Escherichia coli, NIJHJC2, read-out: Minimum Inhibitory Concentration
[9] = Klebsiella pneumoniae, T25, read-out: Minimum Inhibitory Concentration
[10] = Morganella morganii, IID602, read-out: Minimum Inhibitory Concentration
[11] = Escherichia coli A13, inoculum size 10^6 cells/ml, read-out: Minimum Inhibitory Concentration
[12] = NIJHJC2, Escherichia coli NIJH JC-2, inoculum size 10^6 cells/ml, read-out: Minimum Inhibitory Concentration
[13] = T25, Klebsiella pneumoniae T-25, inoculum size 10^6 cells/ml, read-out: Minimum Inhibitory Concentration
[14] = IID602, Morganella morganii IID 602, inoculum size 10^6 cells/ml, read-out: Minimum Inhibitory Concentration
[15] = Staphylococcus aureus 209P-JC, inoculum size 10^6 cells/ml

Row | MIC ([1]; K1, Staphylococcus aureus K-1, inoculum size 10^6 cells/ml, read-out: Minimum Inhibitory Concentration) [µg/mL] | MIC (Escherichia coli A13; [11]) [µg/mL] | MIC [2, 12] [µg/mL] | MIC [3, 13] [µg/mL] | MIC [4, 14] [µg/mL] | MIC [5, 15] [µg/mL] | SMILES | MIC [1, 6] [µg/mL] | MIC (Escherichia coli A13; [7]) [µg/mL] | MIC [2, 8] [µg/mL] | MIC [3, 9] [µg/mL] | MIC [4, 10] [µg/mL] | MIC ([5]; Staphylococcus aureus, 209P) [µg/mL] | concentration at 4 h (in vivo; Four Hours after oral administration) [ng/mL] | concentration at 1 h (in vivo; One Hour after oral administration) [ng/mL] | concentration at 2 h (in vivo; Two Hours after oral administration) [ng/mL]
1 | – | – | – | – | – | – | COC(=O)/C=C\SC1=C(C(=O)[O-])N2C(=O)[C@@H](NC(=O)/C(=N\O)c3csc(N)n3)[C@H]2SC1.[Na+] | 3.13 | 6.25 | ≤ 0.025 | 0.2 | 0.05 | 0.2 | 16900 | 11000 | 14200
2 | – | – | – | – | – | – | CC1=C(C(=O)O)N2C(=O)[C@@H](NC(=O)[C@H](N)c3ccccc3)[C@H]2SC1 [Test compound B, Cephalexin] | > 100 | > 100 | 3.13 (≈ 9.01 µM) | 100 (≈ 288 µM) | > 100 | 0.78 (≈ 2.25 µM) | – | – | –
3 | > 100 | > 100 | 0.05 | 12.5 | 0.39 | 12.5 | C=CC1=C(C(=O)O)N2C(=O)[C@@H](NC(=O)/C(=N\OCC(=O)O)c3csc(N)n3)[C@H]2SC1 [Test compound C, Cefixime sodium salt] | – | – | – | – | – | – | – | – | –
4 | – | > 100 | 0.05 (≈ 0.092 µM) | 0.39 (≈ 0.717 µM) | 0.25 (≈ 0.46 µM) | 6.25 (≈ 11.5 µM) | COC(=O)/C=C\SC1=C(C(=O)O)N2C(=O)[C@@H](NC(=O)/C(=N\OCC(=O)O)c3csc(N)n3)[C@H]2SC1 [Test compound D] | – | – | – | – | – | – | – | – | –

Reference: patent US4937332A, “Cephalosporin derivatives” (Taisho Pharmaceutical Co., Ltd., priority 1987, dated 1990)
